In patent US8883782B2, “Spiro-tetracyclic ring compounds as beta-secretase modulators and methods of use” (Amgen Inc., priority 2010, dated 2014):
Like-named read-outs stand apart in the source and are kept apart here.

Tests used:
[1] = test system: Aβ40 in conditioned medium of cells stably expressing Amyloid Precursor Protein (APP); assay: In vitro BACE cell-based assay (Aβ40 in conditioned medium, sandwich ELISA); settings: Homo sapiens, read-out: HEK cell assay
How it was run: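 Quantification relied on pAb40/6E10 sandwich ELISA with Europium fluorescence counts, and IC50 was fitted versus concentration.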

[2] = target: Beta Secretase enzyme (BACE) (Homo sapiens, UniProt P56817); assay: In vitro enzymatic BACE FRET (fluorescence resonance energy transfer) assay; assay type: biochemical; settings: average IC50, enzyme assay; read-out: BACE 1 FRET assay
How it was run: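 A peptide bearing a fluorophore and quencher across the cleavage site serves as substrate at 50 nM. Reactions proceed one hour in acidic acetate buffer (0.05 M, pH 4.2) containing 10% DMSO final and 100 uM genapol, then are terminated with Tris and read fluorimetrically.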

[3] = HEK293, average IC50, HEK cells

Sequence of Beta Secretase enzyme (BACE) (P56817 46-501, species assumed): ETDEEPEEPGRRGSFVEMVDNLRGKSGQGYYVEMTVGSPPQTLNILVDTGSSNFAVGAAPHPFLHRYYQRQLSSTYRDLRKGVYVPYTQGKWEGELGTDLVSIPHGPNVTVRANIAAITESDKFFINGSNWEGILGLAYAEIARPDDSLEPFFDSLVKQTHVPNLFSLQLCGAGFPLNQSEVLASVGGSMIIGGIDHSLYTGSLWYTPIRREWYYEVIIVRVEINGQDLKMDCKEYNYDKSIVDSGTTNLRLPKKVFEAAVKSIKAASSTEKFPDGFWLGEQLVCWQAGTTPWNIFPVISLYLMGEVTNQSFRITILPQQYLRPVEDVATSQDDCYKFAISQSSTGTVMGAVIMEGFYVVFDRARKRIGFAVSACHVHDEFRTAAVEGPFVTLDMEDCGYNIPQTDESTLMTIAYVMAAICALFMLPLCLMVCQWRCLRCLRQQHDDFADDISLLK

Row | SMILES | IC50 ([1]; HEK293, average IC50) | IC50 [2] | IC50 [1, 3]
1 | CC#Cc1cncc(-c2cc(F)c3c(c2)[C@]2(COC(N)=N2)c2cc(OC)ccc2O3)c1 [Example 776, (4S)-4′-fluoro-7′-methoxy-2′-(5-(1-propyn-1-yl)-3-pyridinyl)spiro[1,3-oxazole-4,9′-xanthen]-2-amine] | ≥ 10000 nM | 2380 nM | –
2 | Cc1ccc(-c2cnc3c(c2)[C@]2(COC(N)=N2)c2cc(OCc4cccnc4)ccc2O3)cn1 [Example 977, (5S)-3-(6-methyl-3-pyridinyl)-7-(3-pyridinylmethoxy)spiro[chromeno[2,3-b]pyridine-5,4′-[1,3]oxazol]-2′-amine] | 430 nM | 51.9 nM | –
3 | CC1(C#Cc2cnc3c(c2)[C@@]2(COC(N)=N2)c2c(ccc(-c4cccnc4F)c2F)O3)COC1 [Example 341, (5S)-6-fluoro-7-(2-fluoro-3-pyridinyl)-3-((3-methyl-3-oxetanyl)ethynyl)spiro[chromeno[2,3-b]pyridine-5,4′-[1,3]oxazol]-2′-amine] | 566 nM | 154 nM | –
4 | CC(C)(C)C#Cc1ccc2c(c1)[C@]1(COC(N)=N1)c1cc(-c3cncnc3)c(F)cc1O2 [Example 497, (4R)-7′-(3,3-dimethyl-1-butyn-1-yl)-3′-fluoro-2′-(5-pyrimidinyl)spiro[1,3-oxazole-4,9′-xanthen]-2-amine] | – | 2.5 nM | 37.2 nM
5 | NC1=N[C@@]2(CO1)c1cc(-c3c(F)ccnc3F)ccc1Oc1cnc(C3CCOCC3)cc12 [Example 616, (5S)-7-(2,4-difluoro-3-pyridinyl)-3-(tetrahydro-2H-pyran-4-yl)spiro[chromeno[2,3-c]pyridine-5,4′-[1,3]oxazol]-2′-amine] | – | 17 nM | 176 nM
6 | NC1=N[C@]2(CO1)c1cc(Br)ccc1Oc1nc(F)ccc12 [Example 484, (5R)-7-bromo-2-fluorospiro[chromeno[2,3-b]pyridine-5,4′-[1,3]oxazol]-2′-amine] | – | 24600 nM | 10000 nM
7 | NC1=N[C@@]2(CO1)c1cc(-c3cncc(Cl)c3)ccc1Oc1c(F)cc(OCC3CCOCC3)cc12 [Example 211, (4S)-7′-(5-chloro-3-pyridinyl)-4′-fluoro-2′-(tetrahydro-2H-pyran-4-ylmethoxy)spiro[1,3-oxazole-4,9′-xanthen]-2-amine] | 8.2 nM | 0.6 nM | –
8 | CC#Cc1cncc(-c2ccc3c(c2)[C@@]2(COC(N)=N2)c2cc(OCC4(C)COC4)cc(F)c2O3)c1 [Example 949, (4S)-4′-fluoro-2′-((3-methyl-3-oxetanyl)methoxy)-7′-(5-(1-propyn-1-yl)-3-pyridinyl)spiro[1,3-oxazole-4,9′-xanthen]-2-amine] | – | 0.4 nM | 3 nM
9 | NC1=N[C@@]2(CO1)c1cc(-c3cccnc3)ccc1Oc1cnc(-c3ccnc(F)c3)cc12 [Example 536, (5S)-3-(2-fluoro-4-pyridinyl)-7-(3-pyridinyl)spiro[chromeno[2,3-c]pyridine-5,4′-[1,3]oxazol]-2′-amine] | – | 2.3 nM | 27.1 nM
10 | NC1=N[C@@]2(CO1)c1cc(-c3cccnc3F)ccc1Oc1c2cc(C2=CCOCC2)nc1F [Example 130, (S)-3-(3,6-dihydro-2H-pyran-4-yl)-1-fluoro-7-(2-fluoropyridin-3-yl)-5′H-spiro[chromeno[2,3-c]pyridine-5,4′-oxazol]-2′-amine] | – | 0.4 nM | 2.1 nM
11 | Cn1cc(-c2cnc3c(c2)[C@]2(CSC(N)=N2)c2cc(-c4cccnc4)ccc2O3)cn1 [Example 960, (5S)-3-(1-methyl-1H-pyrazol-4-yl)-7-(3-pyridinyl)spiro[chromeno[2,3-b]pyridine-5,4′-[1,3]thiazol]-2′-amine] | – | 3.7 nM | 36 nM
12 | CC1(COc2cc3c(cc2F)Oc2ccc(-c4ccc(F)nc4)cc2[C@@]32COC(N)=N2)COC1 [Example 326, (4S)-3′-fluoro-7′-(6-fluoro-3-pyridinyl)-2′-((3-methyl-3-oxetanyl)methoxy)spiro[1,3-oxazole-4,9′-xanthen]-2-amine] | 61.6 nM | 19.7 nM | –
13 | NC1=N[C@@]2(CO1)c1cc(Oc3ccc(Cl)cn3)ccc1Oc1c(F)cc(C3=CCOCC3)cc12 [Example 1066, (4S)-7′-((5-chloro-2-pyridinyl)oxy)-2′-(3,6-dihydro-2H-pyran-4-yl)-4′-fluorospiro[1,3-oxazole-4,9′-xanthen]-2-amine] | 1970 nM | 52.6 nM | –
14 | NC1=N[C@]2(CO1)c1cc(-c3cccnc3F)ccc1Oc1c2cc(C#Cc2cccnc2)nc1F [Example 747, (5R)-1-fluoro-7-(2-fluoro-3-pyridinyl)-3-(3-pyridinylethynyl)spiro[chromeno[2,3-c]pyridine-5,4′-[1,3]oxazol]-2′-amine] | ≥ 10000 nM | 1120 nM | –
15 | CC1(COc2cc(F)c3c(c2)[C@]2(COC(N)=N2)c2cc(-c4cnccn4)ccc2O3)COC1 [Example 267, (4S)-4′-fluoro-2′-((3-methyl-3-oxetanyl)methoxy)-7′-(2-pyrazinyl)spiro[1,3-oxazole-4,9′-xanthen]-2-amine] | 12 nM | 3.1 nM | –
16 | NC1=N[C@@]2(CO1)c1cc(-c3cncnc3)ccc1Oc1cnc(N3CCC(F)(F)C3)cc12 [Example 540, (5S)-3-(3,3-difluoro-1-pyrrolidinyl)-7-(5-pyrimidinyl)spiro[chromeno[2,3-c]pyridine-5,4′-[1,3]oxazol]-2′-amine] | – | 0.8 nM | 7.2 nM
17 | CC(C)(C)OCc1cnc2c(c1)[C@]1(COC(N)=N1)c1cc(-c3cccnc3F)c(F)cc1O2 [Example 716, (S)-3-(tert-butoxymethyl)-8-fluoro-7-(2-fluoropyridin-3-yl)-5′H-spiro[chromeno[2,3-b]pyridine-5,4′-oxazol]-2′-amine] | – | 6.5 nM | 132 nM
18 | N#Cc1cccc(-c2ccc3c(c2)[C@@]2(COC(N)=N2)c2cc(N4CCC(F)(F)C4)nc(F)c2O3)c1 [Example 920, 3-((5S)-2′-amino-3-(3,3-difluoro-1-pyrrolidinyl)-1-fluorospiro[chromeno[2,3-c]pyridine-5,4′-[1,3]oxazol]-7-yl)benzonitrile] | – | 0.2 nM | 12 nM
19 | NC1=N[C@@]2(CO1)c1cc(Oc3cccc(Cl)n3)ccc1Oc1c(F)cc(N3CCOCC3)cc12 [Example 1060, (4S)-7′-((6-chloro-2-pyridinyl)oxy)-4′-fluoro-2′-(4-morpholinyl)spiro[1,3-oxazole-4,9′-xanthen]-2-amine] | 318 nM | 33.5 nM | –
20 | NC1=N[C@@]2(CO1)c1cc(-c3cncnc3)c(F)cc1Oc1c(F)cc(C3CCOCC3)cc12 [Example 1040, (4S)-3′,5′-difluoro-2′-(5-pyrimidinyl)-7′-(tetrahydro-2H-pyran-4-yl)spiro[1,3-oxazole-4,9′-xanthen]-2-amine] | 30 nM | 1.5 nM | –
21 | NC1=N[C@@]2(CO1)c1cc(-c3ccc(F)cc3)ccc1Oc1cnc(C3=CCOCC3)cc12 [Example 394, (5S)-3-(3,6-dihydro-2H-pyran-4-yl)-7-(4-fluorophenyl)spiro[chromeno[2,3-c]pyridine-5,4′-[1,3]oxazol]-2′-amine] | – | 9.4 nM | 138 nM
22 | NC1=N[C@@]2(CO1)c1cc(C#CC3CC3)ccc1Oc1cnc(C3=CCOCC3)cc12 [Example 159, (5S)-7-(cyclopropylethynyl)-3-(3,6-dihydro-2H-pyran-4-yl)spiro[chromeno[2,3-c]pyridine-5,4′-[1,3]oxazol]-2′-amine] | 84 nM | 4.9 nM | –
23 | COc1cc2c(c(F)c1F)Oc1ccc(Br)cc1[C@]21COC(N)=N1 [Example 1002, (4R)-7′-bromo-3′,4′-difluoro-2′-methoxyspiro[1,3-oxazole-4,9′-xanthen]-2-amine] | ≥ 10000 nM | 18100 nM | –
24 | NC1=N[C@@]2(CC1(F)F)c1cc(-c3cccnc3)ccc1Oc1ncc(-c3cccnc3)cc12 [Example 112, (5S)-4′,4′-difluoro-3,7-di-3-pyridinyl-3′,4′-dihydrospiro[chromeno[2,3-b]pyridine-5,2′-pyrrol]-5′-amine] | 2160 nM | 63.2 nM | –
25 | CC1(C#Cc2cc3c(c(F)n2)Oc2ccc(-c4cccnc4F)cc2C32COC(N)=N2)COC1 (stereo not shown) [Example 733, 1-fluoro-7-(2-fluoro-3-pyridinyl)-3-((3-methyl-3-oxetanyl)ethynyl)spiro[chromeno[2,3-c]pyridine-5,4′-[1,3]oxazol]-2′-amine] | 18 nM | 1.1 nM | –
26 | N#Cc1cccc(-c2ccc3c(c2)[C@@]2(CSC(N)=N2)c2cc(C4=CCCOC4)cnc2O3)c1F [Example 778, 3-((5S)-2′-amino-3-(5,6-dihydro-2H-pyran-3-yl)spiro[chromeno[2,3-b]pyridine-5,4′-[1,3]thiazol]-7-yl)-2-fluorobenzonitrile] | 54 nM | 2.8 nM | –
27 | Cc1ccc(-c2cc(F)c3c(c2)[C@]2(COC(N)=N2)c2cc(-c4cccnc4F)ccc2O3)nn1 [Example 114, (S)-4′-fluoro-7′-(2-fluoropyridin-3-yl)-2′-(6-methylpyridazin-3-yl)-5H-spiro[oxazole-4,9′-xanthen]-2-amine] | 4 nM | 0.5 nM | –
28 | CC#Cc1cncc(-c2ccc3c(c2)[C@@]2(COC(N)=N2)c2cc(C#CC4(C)COC4)cnc2O3)c1 [Example 943, (5S)-3-((3-methyl-3-oxetanyl)ethynyl)-7-(5-(1-propyn-1-yl)-3-pyridinyl)spiro[chromeno[2,3-b]pyridine-5,4′-[1,3]oxazol]-2′-amine] | – | 0.7 nM | 1 nM
29 | CC(C)(CF)COc1cc(F)c2c(c1)[C@]1(CSC(N)=N1)c1cc(-c3cccnc3F)ccc1O2 [Example 1081, (4S)-4′-fluoro-2′-(3-fluoro-2,2-dimethylpropoxy)-7′-(2-fluoro-3-pyridinyl)spiro[1,3-thiazole-4,9′-xanthen]-2-amine] | 899 nM | 214 nM | –
